± gives the standard deviation of the averaged measurements.
What was measured:
17-AAG = compound: C=CCNC1=C2C[C@@H](C)C[C@H](OC)[C@H](O)[C@@H](C)/C=C(\C)[C@H](OC(N)=O)[C@@H](OC)/C=C\C=C(/C)C(=O)NC(=CC1=O)C2=O [17-AAG]; assay: surviving fraction relative to DMSO-only wells; higher = less growth inhibition; conditions: exposure time: 5 days
Summary of the method: (§1)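 Tumour cell lines were seeded in log phase at 250–500 cells per well into 384-well plates. Starting 24 hours later, inhibitors were present continuously for five days at 0.5, 1, 5, 10, 50, 100, 500 and 1000 nM. Surviving fraction, from CellTiter-Glo luminescence, is normalised to the median of DMSO-only wells. Three screens per line were required, with replicate Pearson r >0.7 and median Z' >0.3 for a line to be kept.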

VISMODEGIB = compound: CS(=O)(=O)c1ccc(C(=O)Nc2ccc(Cl)c(-c3ccccn3)c2)c(Cl)c1 [VISMODEGIB]; assay: as above; conditions: exposure time: 5 days
Summary of the method: as §1

| Test System | surviving fraction (17-AAG; 0.5 nM) | surviving fraction (17-AAG; 1 nM) | surviving fraction (17-AAG; 5 nM) | surviving fraction (17-AAG; 10 nM) | surviving fraction (17-AAG; 50 nM) | surviving fraction (17-AAG; 100 nM) | surviving fraction (17-AAG; 500 nM) | surviving fraction (17-AAG; 1000 nM) | surviving fraction (VISMODEGIB; 0.5 nM) | surviving fraction (VISMODEGIB; 1 nM) | surviving fraction (VISMODEGIB; 5 nM) | surviving fraction (VISMODEGIB; 10 nM) | surviving fraction (VISMODEGIB; 50 nM) | surviving fraction (VISMODEGIB; 100 nM) | surviving fraction (VISMODEGIB; 500 nM) | surviving fraction (VISMODEGIB; 1000 nM) |
| --- | --- | --- | --- | --- | --- | --- | --- | --- | --- | --- | --- | --- | --- | --- | --- | --- |
| PCI30 HEADNECK | 0.915 ± 0.067 | 0.972 ± 0.059 | 1.01 ± 0.12 | 1.09 ± 0.029 | 0.302 ± 0.031 | 0.134 ± 0.019 | 0.0433 ± 0.0093 | 0.0393 ± 0.0015 | 0.911 ± 0.028 | 0.956 ± 0.07 | 0.96 ± 0.04 | 0.947 ± 0.065 | 0.898 ± 0.079 | 0.949 ± 0.017 | 0.844 ± 0.077 | 0.876 ± 0.043 |
| RDES SOFT TISSUE | 0.776 ± 0.22 | 0.784 ± 0.055 | 0.674 ± 0.081 | 0.692 ± 0.18 | 0.745 ± 0.11 | 0.992 ± 0.26 | 0.335 ± 0.042 | 0.16 ± 0.0035 | 1.06 ± 0.088 | 1.1 ± 0.047 | 1.11 ± 0.22 | 1.16 ± 0.034 | 0.677 ± 0.3 | 0.83 ± 0.34 | 0.761 ± 0.18 | 0.717 ± 0.32 |
| S68 BREAST | 0.8 ± 0.19 | 0.706 ± 0.12 | 0.126 ± 0.0072 | 0.0657 ± 0.0075 | 0.0677 ± 0.0091 | 0.064 ± 0.0044 | 0.057 ± 0.0079 | 0.0607 ± 0.0047 | 0.99 ± 0.087 | 0.839 ± 0.11 | 1.21 ± 0.25 | 1.04 ± 0.2 | 0.762 ± 0.19 | 0.917 ± 0.23 | 0.805 ± 0.12 | 0.621 ± 0.058 |
| SAOS2 BONE | 0.829 ± 0.046 | 0.775 ± 0.01 | 0.859 ± 0.099 | 0.77 ± 0.073 | 0.215 ± 0.031 | 0.0823 ± 0.004 | 0.069 ± 0.0087 | 0.0783 ± 0.0058 | 1.11 ± 0.052 | 1.097 ± 0.0075 | 1.08 ± 0.059 | 1.099 ± 0.0081 | 0.834 ± 0.082 | 0.954 ± 0.052 | 0.85 ± 0.036 | 0.916 ± 0.055 |
| SCC003 HEADNECK | 0.839 ± 0.058 | 0.89 ± 0.024 | 0.882 ± 0.04 | 0.789 ± 0.14 | 1.01 ± 0.074 | 0.396 ± 0.012 | 0.195 ± 0.017 | 0.0693 ± 0.0095 | 0.956 ± 0.073 | 0.988 ± 0.029 | 1.05 ± 0.17 | 1.06 ± 0.11 | 0.918 ± 0.082 | 1.05 ± 0.14 | 0.852 ± 0.08 | 0.98 ± 0.056 |
| SCC36 HEADNECK | 0.696 ± 0.065 | 0.767 ± 0.036 | 0.772 ± 0.089 | 0.744 ± 0.093 | 0.518 ± 0.059 | 0.257 ± 0.012 | 0.039 ± 0.0027 | 0.038 ± 0.0044 | 0.88 ± 0.031 | 0.979 ± 0.033 | 1.07 ± 0.048 | 1.05 ± 0.051 | 0.739 ± 0.094 | 0.779 ± 0.085 | 0.731 ± 0.071 | 0.721 ± 0.076 |
| SCC47 HEADNECK | 0.908 ± 0.024 | 0.925 ± 0.028 | 0.973 ± 0.014 | 0.939 ± 0.028 | 0.964 ± 0.053 | 0.255 ± 0.032 | 0.095 ± 0.002 | 0.067 ± 0.0044 | 0.968 ± 0.064 | 1 ± 0.07 | 0.992 ± 0.044 | 1.04 ± 0.07 | 0.892 ± 0.026 | 0.963 ± 0.026 | 0.9167 ± 0.004 | 0.954 ± 0.016 |
| SCC90 HEADNECK | 0.866 ± 0.0092 | 0.923 ± 0.12 | 1 ± 0.11 | 0.862 ± 0.079 | 0.793 ± 0.039 | 0.423 ± 0.064 | 0.206 ± 0.042 | 0.0677 ± 0.013 | 0.824 ± 0.014 | 0.945 ± 0.051 | 0.908 ± 0.092 | 1.01 ± 0.023 | 0.848 ± 0.026 | 0.84 ± 0.053 | 0.841 ± 0.015 | 0.881 ± 0.029 |
| SG27 HEADNECK | 1.046 ± 0.0051 | 1.07 ± 0.073 | 0.913 ± 0.039 | 0.93 ± 0.026 | 1.31 ± 0.16 | 1.1 ± 0.24 | 0.274 ± 0.044 | 0.111 ± 0.014 | 0.942 ± 0.013 | 0.974 ± 0.13 | 1 ± 0.062 | 0.962 ± 0.071 | 0.933 ± 0.039 | 0.961 ± 0.052 | 0.9 ± 0.052 | 1.03 ± 0.13 |
| SG28 HEADNECK | 0.93 ± 0.048 | 0.918 ± 0.069 | 0.86 ± 0.05 | 0.776 ± 0.064 | 0.551 ± 0.11 | 0.322 ± 0.016 | 0.0967 ± 0.014 | 0.0863 ± 0.0032 | 1 ± 0.033 | 0.995 ± 0.042 | 0.979 ± 0.096 | 0.921 ± 0.096 | 0.801 ± 0.043 | 0.831 ± 0.019 | 0.837 ± 0.076 | 0.929 ± 0.099 |

— the supplement of paper PMC6045584
